Measured values taken from ChEMBL document CHEMBL6182926, “Design, Synthesis, and Biological Activity Evaluation of Deuterated Diphenyl Azole Alcohol-Based CYP51 Inhibitors” (J Med Chem, 2025).
≈ marks a conversion by molar mass, not a printed value.

Tests used:
Candida albicans [1] = experiment: Antifungal activity against Candida albicans SC 5314 assessed as inhibition of visible growth; type: functional
Pichia kudriavzevii = experiment: Antifungal activity against Candida krusei AS 2.1045 assessed as inhibition of visible growth; type: functional
Candida parapsilosis = experiment: Antifungal activity against Candida parapsilosis GIM 2.190 assessed as inhibition of visible growth; type: functional; conditions: Lodderomyces parapsilosis
[2] = Metabolic stability in human liver microsomes assessed as compound remaining measured up to 60 mins by LC-MS/MS analysis; type: ADME, Microsome; conditions: liver microsomes, read-out: Activity
[3] = Metabolic stability in human liver microsomes assessed as half life by LC-MS/MS analysis; type: ADME, Microsome; conditions: liver microsomes
Cryptococcus neoformans = experiment: Antifungal activity against Cryptococcus neoformans CGMCC 2.3161 assessed as inhibition of visible growth; type: functional
Aspergillus fumigatus = experiment: Antifungal activity against Aspergillus fumigatus CGMCC 3.7795 assessed as inhibition of visible growth; type: functional
Nakaseomyces glabratus = experiment: Antifungal activity against Clinical isolate Candida glabrata assessed as inhibition of visible growth; type: functional
Candida tropicalis = experiment: Antifungal activity against Candida tropicalis CGMCC 2.3739 assessed as inhibition of visible growth; type: functional
Candida albicans [4] = experiment: Antifungal activity against Candida albicans CPCC 400616 assessed as inhibition of visible growth; type: functional

## [2H]C([2H])([2H])N(Cc1ccc(-c2ccc(C(F)(F)F)cc2)cc1)[C@H](C)[C@](O)(Cn1cncn1)c1ccc(F)cc1F
Candida albicans [1]
  MIC80: 0.006 µg/mL (≈ 0.0115 µM)
Pichia kudriavzevii
  MIC80: 0.012 µg/mL (≈ 0.0231 µM)
Candida parapsilosis
  MIC80: 0.006 µg/mL (≈ 0.0115 µM)
[2]
  remaining at 1 h: 29%
[3]
  half-life: 35.1 min
Cryptococcus neoformans
  MIC80: 0.012 µg/mL (≈ 0.0231 µM)
Aspergillus fumigatus
  MIC80: 0.025 µg/mL (≈ 0.0481 µM)
Nakaseomyces glabratus
  MIC80: 0.012 µg/mL (≈ 0.0231 µM)
Candida tropicalis
  MIC80: 0.006 µg/mL (≈ 0.0115 µM)
Candida albicans [4]
  MIC80: 0.006 µg/mL (≈ 0.0115 µM)

## [2H]C([2H])([2H])N(Cc1ccc(-c2ccc(OC(F)(F)F)cc2)cc1F)[C@H](C)[C@](O)(Cn1cncn1)c1ccc(F)cc1F
Candida albicans [1]
  MIC80: 0.012 µg/mL (≈ 0.0217 µM)
Pichia kudriavzevii
  MIC80: 0.05 µg/mL (≈ 0.0903 µM)
Candida parapsilosis
  MIC80: 0.012 µg/mL (≈ 0.0217 µM)
Cryptococcus neoformans
  MIC80: 0.025 µg/mL (≈ 0.0452 µM)
Aspergillus fumigatus
  MIC80: 0.05 µg/mL (≈ 0.0903 µM)
Nakaseomyces glabratus
  MIC80: 0.025 µg/mL (≈ 0.0452 µM)
Candida tropicalis
  MIC80: 0.012 µg/mL (≈ 0.0217 µM)
Candida albicans [4]
  MIC80: 0.012 µg/mL (≈ 0.0217 µM)

## [2H]C([2H])([2H])N(Cc1ccc(-c2ccc(Cl)cc2)cc1)[C@H](C)[C@](O)(Cn1cncn1)c1ccc(F)cc1F
Candida albicans [1]
  MIC80: 0.006 µg/mL (≈ 0.0123 µM)
Pichia kudriavzevii
  MIC80: 0.012 µg/mL (≈ 0.0247 µM)
Candida parapsilosis
  MIC80: 0.006 µg/mL (≈ 0.0123 µM)
Cryptococcus neoformans
  MIC80: 0.006 µg/mL (≈ 0.0123 µM)
Aspergillus fumigatus
  MIC80: 0.025 µg/mL (≈ 0.0514 µM)
Nakaseomyces glabratus
  MIC80: 0.012 µg/mL (≈ 0.0247 µM)
Candida tropicalis
  MIC80: 0.006 µg/mL (≈ 0.0123 µM)
Candida albicans [4]
  MIC80: 0.006 µg/mL (≈ 0.0123 µM)

## [2H]C([2H])([2H])N(Cc1ccc(-c2ccc(OC(F)(F)F)cc2)nc1)[C@H](C)[C@](O)(Cn1cncn1)c1ccc(F)cc1F
Candida albicans [1]
  MIC80: 0.006 µg/mL (≈ 0.0112 µM)
Pichia kudriavzevii
  MIC80: 0.012 µg/mL (≈ 0.0224 µM)
Candida parapsilosis
  MIC80: 0.006 µg/mL (≈ 0.0112 µM)
Cryptococcus neoformans
  MIC80: 0.012 µg/mL (≈ 0.0224 µM)
Aspergillus fumigatus
  MIC80: 0.025 µg/mL (≈ 0.0466 µM)
Nakaseomyces glabratus
  MIC80: 0.012 µg/mL (≈ 0.0224 µM)
Candida tropicalis
  MIC80: 0.012 µg/mL (≈ 0.0224 µM)
Candida albicans [4]
  MIC80: 0.012 µg/mL (≈ 0.0224 µM)

## [2H]C([2H])([2H])N(Cc1ccc(-c2ccc(C(F)(F)F)cc2)cc1F)[C@H](C)[C@](O)(Cn1cncn1)c1ccc(F)cc1F
Candida albicans [1]
  MIC80: 0.012 µg/mL (≈ 0.0223 µM)
Pichia kudriavzevii
  MIC80: 0.05 µg/mL (≈ 0.093 µM)
Candida parapsilosis
  MIC80: 0.012 µg/mL (≈ 0.0223 µM)
Cryptococcus neoformans
  MIC80: 0.025 µg/mL (≈ 0.0465 µM)
Aspergillus fumigatus
  MIC80: 0.05 µg/mL (≈ 0.093 µM)
Nakaseomyces glabratus
  MIC80: 0.025 µg/mL (≈ 0.0465 µM)
Candida tropicalis
  MIC80: 0.012 µg/mL (≈ 0.0223 µM)
Candida albicans [4]
  MIC80: 0.012 µg/mL (≈ 0.0223 µM)

## O[C@@](Cn1cnnn1)(c1ccc(F)cc1F)C(F)(F)c1ccc(-c2ccc(OCC(F)(F)F)cc2)cn1 [OTESECONAZOLE]
Candida albicans [1]
  MIC80: 0.006 µg/mL (≈ 0.0114 µM)
Pichia kudriavzevii
  MIC80: 0.1 µg/mL (≈ 0.19 µM)
Candida parapsilosis
  MIC80: 0.006 µg/mL (≈ 0.0114 µM)
Cryptococcus neoformans
  MIC80: 0.012 µg/mL (≈ 0.0228 µM)
Aspergillus fumigatus
  MIC80: > 64 µg/mL
Nakaseomyces glabratus
  MIC80: 0.1 µg/mL (≈ 0.19 µM)
Candida tropicalis
  MIC80: 0.006 µg/mL (≈ 0.0114 µM)
Candida albicans [4]
  MIC80: 0.006 µg/mL (≈ 0.0114 µM)

## [2H]C([2H])([2H])N(Cc1ccc(-c2ccc(C(F)(F)F)cc2)nc1)[C@H](C)[C@](O)(Cn1cncn1)c1ccc(F)cc1F
Candida albicans [1]
  MIC80: 0.012 µg/mL (≈ 0.0231 µM)
Pichia kudriavzevii
  MIC80: 0.012 µg/mL (≈ 0.0231 µM)
Candida parapsilosis
  MIC80: 0.006 µg/mL (≈ 0.0115 µM)
Cryptococcus neoformans
  MIC80: 0.012 µg/mL (≈ 0.0231 µM)
Aspergillus fumigatus
  MIC80: 0.025 µg/mL (≈ 0.048 µM)
Nakaseomyces glabratus
  MIC80: 0.012 µg/mL (≈ 0.0231 µM)
Candida tropicalis
  MIC80: 0.012 µg/mL (≈ 0.0231 µM)
Candida albicans [4]
  MIC80: 0.006 µg/mL (≈ 0.0115 µM)
